Experimental data: PubChem BioAssay AID248 (DTP/NCI, 2004)
“And” between values parts separate entries of the source, which are not always exact repeats. Equal values may be shown once. Inconclusive results and toxic doses are left out. Rule as the data show it: active = T/C of 150% or more; inactive = T/C below 125%.

Tested on: L1210 leukemia ip in BDF1 mice, survival T/C
Assay: NCI In Vivo Anticancer Drug Screen. Data for tumor model L1210 Leukemia (intraperitoneal) in B6D2F1 (BDF1) mice
Details: endpoint: mean survival time, higher = longer survival
How it was run: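 Transplanted-tumor mice were given test agent; controls received vehicle only. Survival readings from the two groups were divided (treated over control).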

[1] = dose: 100.0 mg/kg/injection, schedule: Q01DX001 (ip), vehicle: saline
[2] = dose: 200.0 mg/kg/injection, schedule: Q01DX001 (ip), vehicle: saline
[3] = dose: 400.0 mg/kg/injection, schedule: Q01DX001 (ip), vehicle: saline
[4] = dose: 100.0 mg/kg/injection, schedule: Q01DX001 (ip), vehicle: other
[5] = dose: 200.0 mg/kg/injection, schedule: Q01DX001 (ip), vehicle: other
[6] = dose: 50.0 mg/kg/injection, schedule: Q01DX001 (ip), vehicle: saline
[7] = dose: 100.0 mg/kg/injection, schedule: Q04DX002 (ip), vehicle: Klucel (hydroxypropylcellulose) (HPC)
[8] = dose: 200.0 mg/kg/injection, schedule: Q04DX002 (ip), vehicle: Klucel (hydroxypropylcellulose) (HPC)
[9] = dose: 400.0 mg/kg/injection, schedule: Q04DX002 (ip), vehicle: Klucel (hydroxypropylcellulose) (HPC)
[10] = dose: 100.0 mg/kg/injection, schedule: Q01DX009 (ip), vehicle: Klucel (hydroxypropylcellulose) (HPC)
[11] = dose: 100.0 mg/kg/injection, schedule: Q04DX003 (ip), vehicle: Klucel (hydroxypropylcellulose) (HPC)
[12] = dose: 200.0 mg/kg/injection, schedule: Q01DX009 (ip), vehicle: Klucel (hydroxypropylcellulose) (HPC)
[13] = dose: 200.0 mg/kg/injection, schedule: Q04DX003 (ip), vehicle: Klucel (hydroxypropylcellulose) (HPC)
[14] = dose: 400.0 mg/kg/injection, schedule: Q01DX009 (ip), vehicle: Klucel (hydroxypropylcellulose) (HPC)
[15] = dose: 400.0 mg/kg/injection, schedule: Q04DX003 (ip), vehicle: Klucel (hydroxypropylcellulose) (HPC)

Measured: T/C

CC(C)CC(NC(=O)C(C)NC(=O)OCc1ccccc1)C(=O)NC(CC(C)C)C(=O)NCC(=O)NC1CCC2(C)C(CCC3C2CCC2(C)C(NC(=O)CNC(=O)C(CC(C)C)NC(=O)C(CC(C)C)NC(=O)C(C)NC(=O)OCc4ccccc4)CCC32)C1 (stereo unspecified)
inactive: dose: 100.0 mg/kg/injection, schedule: Q01DX009 (sc), vehicle: steriod suspending solution 89 % of control | dose: 100.0 mg/kg/injection, schedule: Q04DX003 (sc), vehicle: steriod suspending solution 89 % of control | dose: 200.0 mg/kg/injection, schedule: Q01DX009 (sc), vehicle: steriod suspending solution 89 % of control | dose: 200.0 mg/kg/injection, schedule: Q04DX003 (sc), vehicle: steriod suspending solution 103 % of control | dose: 400.0 mg/kg/injection, schedule: Q01DX009 (sc), vehicle: steriod suspending solution 94 % of control | dose: 400.0 mg/kg/injection, schedule: Q04DX003 (sc), vehicle: steriod suspending solution 92 % of control

O=c1c(-c2ccccc2)c(-c2ccccc2)n2n1C1CCC2C1 (stereo unspecified)
inactive: [1] 95 % of control | [2] 89 % of control | [3] 110 % of control

IC12CC3CC(CC(C3)C1)C2
inactive: dose: 100.0 mg/kg/injection, schedule: Q01DX009 (ip), vehicle: saline with Tween-80 93 % of control | dose: 200.0 mg/kg/injection, schedule: Q01DX009 (ip), vehicle: saline with Tween-80 87 % of control | dose: 400.0 mg/kg/injection, schedule: Q01DX009 (ip), vehicle: saline with Tween-80 97 % of control

COC1=C(N)C(=O)C(OC)=C(N)C1=O
inactive: [1] 94 % of control | [2] 97 % of control

CC(O)CN1CCCCC1 (stereo unspecified)
inactive: [4] 98 % of control | dose: 100.0 mg/kg/injection, schedule: Q04DX003 (ip), vehicle: saline with Tween-80 96 % of control | [5] 98 % of control | dose: 200.0 mg/kg/injection, schedule: Q04DX003 (ip), vehicle: saline with Tween-80 96 % of control

Nc1ncnc2scnc12
inactive: [1] 102 % of control | [2] 99 % of control | [3] 100 % of control

CCCCCCCCSP(=S)(N1CC1)N1CC1
inactive: [6] 102 % of control | [1] 108 % of control | [2] 98 % of control | [3] 96 % of control

COc1c2occc2c(OC)c2c(=O)cc(/C=C/c3ccc4ccccc4n3)oc12
inactive: [1] 95 % of control | [2] 95 % of control | [3] 96 % of control

Cc1cc(C)c2[nH]c(=O)cc(C)c2c1
inactive: [4] 97 % of control and 98 % of control | [5] 97 % of control and 95 % of control | dose: 400.0 mg/kg/injection, schedule: Q01DX001 (ip), vehicle: other 108 % of control and 95 % of control

COc1ccc(NC(=O)NCc2ccc(C)c(C)c2)cc1
inactive: [7] 118 % of control | [8] 96 % of control | [9] 104 % of control

Cc1ccc(NC(=O)COc2cc(Cl)c(Cl)cc2Cl)c([N+](=O)[O-])c1
inactive: [10] 105 % of control | [11] 106 % of control | [12] 89 % of control | [13] 102 % of control | [14] 89 % of control | [15] 93 % of control

COc1ccc(Cl)cc1NC(=O)Oc1ccc(F)cc1
inactive: [10] 87 % of control | [12] 97 % of control | [14] 87 % of control

N#Cc1cc2ccccc2n(O)c1=N
inactive: dose: 75.0 mg/kg/injection, schedule: Q04DX003 (ip), vehicle: saline 93 % of control | dose: 150.0 mg/kg/injection, schedule: Q04DX003 (ip), vehicle: saline 109 % of control | dose: 300.0 mg/kg/injection, schedule: Q04DX003 (ip), vehicle: saline 107 % of control

COc1cc(Cl)ccc1NC(=O)Oc1ccc2ccccc2c1
inactive: [7] 108 % of control | [8] 90 % of control | [9] 104 % of control

C=C1C(=O)OC2C1CCC1(C)CCCC(=C)C21O (stereo unspecified)
inactive: dose: 25.0 mg/kg/injection, schedule: Q04DX002 (ip), vehicle: saline 105 % of control | dose: 50.0 mg/kg/injection, schedule: Q04DX002 (ip), vehicle: saline 102 % of control | dose: 100.0 mg/kg/injection, schedule: Q04DX002 (ip), vehicle: saline 93 % of control and 97 % of control | dose: 200.0 mg/kg/injection, schedule: Q04DX002 (ip), vehicle: saline 90 % of control

O=C(OC1COC(Br)C(OC(=O)c2ccccc2)C1OC(=O)c1ccccc1)c1ccccc1 (stereo unspecified)
inactive: dose: 50.0 mg/kg/injection, schedule: Q01DX001 (ip), vehicle: carboxymethylcellulose (CMC) 90 % of control | dose: 100.0 mg/kg/injection, schedule: Q01DX001 (ip), vehicle: carboxymethylcellulose (CMC) 95 % of control and 97 % of control | [10] 97 % of control | [11] 106 % of control | dose: 200.0 mg/kg/injection, schedule: Q01DX001 (ip), vehicle: carboxymethylcellulose (CMC) 93 % of control and 94 % of control | [12] 103 % of control | [13] 104 % of control | dose: 400.0 mg/kg/injection, schedule: Q01DX001 (ip), vehicle: carboxymethylcellulose (CMC) 98 % of control and 94 % of control | [14] 98 % of control | [15] 98 % of control

N#CC1(NC(=O)CCl)CCCCC1
inactive: [4] 96 % of control | [5] 91 % of control

O=C1OCC/C1=C\c1cccc(/C=C2\CCOC2=O)c1
inactive: dose: 25.0 mg/kg/injection, schedule: Q04DX002 (ip), vehicle: saline with Tween-80 92 % of control | dose: 50.0 mg/kg/injection, schedule: Q04DX002 (ip), vehicle: saline with Tween-80 95 % of control | dose: 100.0 mg/kg/injection, schedule: Q04DX002 (ip), vehicle: saline with Tween-80 106 % of control | dose: 200.0 mg/kg/injection, schedule: Q04DX002 (ip), vehicle: saline with Tween-80 100 % of control

O=C(C/C(=N/O)c1ccccc1)c1ccccc1
inactive: [6] 98 % of control | [1] 102 % of control | [2] 96 % of control | [3] 90 % of control

CC(=O)CC(C[N+](=O)[O-])c1ccccc1 (stereo unspecified)
inactive: [10] 100 % of control | [12] 100 % of control | [14] 100 % of control

Nc1nc2c(c(=O)[nH]1)[N+]1=CN(c3ccc(C(=O)NC(CCC(=O)O)C(=O)O)cc3)CCC1CN2 (stereo unspecified)
inactive: dose: 1.0 mg/kg/injection, schedule: Q01DX009 (ip), vehicle: saline 94 % of control | dose: 2.0 mg/kg/injection, schedule: Q01DX009 (ip), vehicle: saline 100 % of control | dose: 4.0 mg/kg/injection, schedule: Q01DX009 (ip), vehicle: saline 105 % of control | dose: 4.0 mg/kg/injection, schedule: Q04DX003 (ip), vehicle: saline 97 % of control | dose: 8.0 mg/kg/injection, schedule: Q01DX009 (ip), vehicle: saline 94 % of control | dose: 8.0 mg/kg/injection, schedule: Q04DX003 (ip), vehicle: saline 100 % of control | dose: 16.0 mg/kg/injection, schedule: Q01DX009 (ip), vehicle: saline 97 % of control | dose: 16.0 mg/kg/injection, schedule: Q04DX003 (ip), vehicle: saline 99 % of control | dose: 32.0 mg/kg/injection, schedule: Q04DX003 (ip), vehicle: saline 90 % of control | dose: 64.0 mg/kg/injection, schedule: Q04DX003 (ip), vehicle: saline 97 % of control

COc1ccc(NC(=O)Nc2cc(Cl)ccc2OC)cc1
inactive: dose: 12.5 mg/kg/injection, schedule: Q01DX009 (ip), vehicle: Klucel (hydroxypropylcellulose) (HPC) 90 % of control | dose: 25.0 mg/kg/injection, schedule: Q01DX009 (ip), vehicle: Klucel (hydroxypropylcellulose) (HPC) 93 % of control | dose: 50.0 mg/kg/injection, schedule: Q01DX009 (ip), vehicle: Klucel (hydroxypropylcellulose) (HPC) 93 % of control | [11] 99 % of control | [13] 92 % of control | [15] 90 % of control

COC(=O)CCNCc1ccccc1
inactive: [10] 103 % of control | [11] 106 % of control | [12] 99 % of control | [13] 98 % of control | [14] 99 % of control | [15] 103 % of control

COc1cc(Cn2cccc2C=O)c([N+](=O)[O-])cc1OC
inactive: dose: 25.0 mg/kg/injection, schedule: Q04DX002 (ip), vehicle: Klucel (hydroxypropylcellulose) (HPC) 89 % of control | dose: 50.0 mg/kg/injection, schedule: Q04DX002 (ip), vehicle: Klucel (hydroxypropylcellulose) (HPC) 101 % of control | [7] 86 % of control
